According to patent US10667517B2, “2-(Het)aryl-substituted fused heterocycle derivatives as pesticides” (BAYER CROPSCIENCE AKTIENGESELLSCHSAFT, priority 2015, dated 2020):

Experiments:
[1] = system: Ctenocephalides felis; assay: Ctenocephalides felis - in vitro contact tests with adult cat fleas; type: in vivo; conditions: application rate 5 μg/cm^2 (500 g/ha); adult cat fleas in coated tubes; after 48 h; dead or moribund
Description: Ctenocephalides felis—In Vitro Contact Tests with Adult Cat Fleas
(§1) For the coating of the test tubes, 9 mg of active compound are first dissolved in 1 ml of acetone p.a. and then diluted to the desired concentration with acetone p.a. 250 μl of the solution are distributed homogeneously on the inner walls and the base of a 25 ml test tube by turning and rocking on an orbital shaker (rocking rotation at 30 rpm for 2 h). With 900 ppm active compound solution and internal surface 44.7 cm^2, given homogeneous distribution, an area-based dose of 5 μg/cm^2 is achieved.
After the solvent has evaporated off, the tubes are populated with 5-10 adult cat fleas (Ctenocephalides felis), sealed with a perforated plastic lid and incubated in a horizontal position at room temperature and ambient humidity. After 48 h, efficacy is determined. To this end, the test tubes are stood upright and the fleas are knocked to the base of the tube. Fleas which remain motionless at the base or move in an uncoordinated manner are considered to be dead or moribund.
100% efficacy means that all the fleas were dead or moribund. 0% efficacy means that no fleas were harmed.

[2] = system: Rhipicephalus sanguineus; assay: Rhipicephalus sanguineus - in vitro contact tests with adult brown dog ticks; type: in vivo; conditions: application rate 5 μg/cm^2 (500 g/ha); adult brown dog ticks in coated tubes; after 48 h; dead or moribund
Description: Rhipicephalus sanguineus—In Vitro Contact Tests with Adult Brown Dog Ticks
as §1
After the solvent has evaporated off, the tubes are populated with 5-10 adult dog ticks (Rhipicephalus sanguineus), sealed with a perforated plastic lid and incubated in a horizontal position in the dark at room temperature and ambient humidity. After 48 h, efficacy is determined. To this end, the ticks are knocked to the base of the tube and incubated on a hotplate at 45-50° C. for not more than 5 min. Ticks which remain motionless on the base or move in such an uncoordinated manner that they are unable to deliberately avoid the heat by climbing upwards are considered to be dead or moribund.
An efficacy of 100% means that all the ticks were dead or moribund. 0% efficacy means that none of the ticks were harmed.

[3] = system: Phaedon cochleariae; assay: Phaedon cochleariae - spray test; type: in vivo; conditions: application rate 500 g/ha, mustard beetle larvae on Chinese cabbage leaf discs, after 7 days; for pest or weed control at 500 g/ha: Phaedon cochleariae, foliar, 168 h, read-out: efficacy
Description: Phaedon cochleariae—Spray Test
(§2) • Solvent: 78.0 parts by weight of acetone • 1.5 parts by weight of dimethylformamide • Emulsifier: alkylaryl polyglycol ether
(§3) To produce a suitable active compound preparation, 1 part by weight of active compound is dissolved with the stated parts by weight of solvent and made up with water containing an emulsifier concentration of 1000 ppm until the desired concentration is attained. To produce further test concentrations, the preparation is diluted with emulsifier-containing water.
After 7 days, the efficacy in % is determined. 100% means that all the beetle larvae have been killed; 0% means that no beetle larvae have been killed.

[4] = log P (neutral), HPLC on reversed-phase column (C 18), LC-MS neutral range; type: physicochemical; conditions: pH 7.8, ammonium hydrogencarbonate/acetonitrile; for log P (neutral): HPLC reversed-phase C 18, 55° C.; for chromatographic logP: reversed-phase HPLC column (C 18), pH 7.8, HPLC reversed-phase C 18, 55° C.
Description: Temperature: 55° C. […] Called log P (neutral) in the table.

[5] = system: Ctenocephalides felis; assay: Ctenocephalides felis - oral test; type: in vivo; conditions: application rate 100 ppm in citrated cattle blood; adult cat fleas; after 2 days
Description: Ctenocephalides felis—Oral Test • Solvent: dimethyl sulphoxide To produce a suitable active compound preparation, 10 mg of active compound are mixed with 0.5 ml of dimethyl sulphoxide. Dilution with citrated cattle blood gives the desired concentration. About 20 unfed adult cat fleas (Ctenocephalides felis) are placed into a chamber which is closed at the top and bottom with gauze. A metal cylinder whose bottom end is closed with parafilm is placed onto the chamber. The cylinder contains the blood/active compound preparation, which can be imbibed by the fleas through the parafilm membrane. After 2 days, the kill in % is determined. 100% means that all of the fleas have been killed; 0% means that none of the fleas have been killed.

[6] = system: Myzus persicae; assay: Myzus persicae - spray test; type: in vivo; conditions: application rate 500 g/ha; all stages of green peach aphid on Chinese cabbage leaf discs; after 5-6 days
Description: Myzus persicae—Spray Test
• Solvent: 78 parts by weight of acetone • 1.5 parts by weight of dimethylformamide • Emulsifier: alkylaryl polyglycol ether
as §3
Discs of Chinese cabbage leaves (Brassica pekinensis) infested by all stages of the green peach aphid (Myzus persicae) are sprayed with an active compound preparation of the desired concentration.
After 5-6 days, the efficacy in % is determined. 100% means that all the aphids have been killed; 0% means that no aphids have been killed.

[7] = system: Lucilia cuprina; assay: Lucilia cuprina test; type: in vivo; conditions: application rate 100 ppm; L1 larvae in minced horsemeat; after 2 days
Description: Lucilia cuprina Test • Solvent: dimethyl sulphoxide To produce a suitable active compound preparation, 10 mg of active compound are mixed with 0.5 ml of dimethyl sulphoxide, and the concentrate is diluted with water to the desired concentration. About 20 L1 larvae of the Australian sheep blowfly (Lucilia cuprina) are transferred into a test vessel containing minced horsemeat and the active compound preparation of the desired concentration. After 2 days, the kill in % is determined. 100% means that all the larvae have been killed; 0% means that no larvae have been killed.

[8] = system: Spodoptera frugiperda; assay: Spodoptera frugiperda - spray test; type: in vivo; conditions: application rate 500 g/ha; armyworm caterpillars on maize leaf discs; after 7 days
Description: Spodoptera frugiperda—Spray Test
as §2, §3
Leaf discs of maize (Zea mays) are sprayed with an active compound preparation of the desired concentration and, after drying, populated with caterpillars of the armyworm (Spodoptera frugiperda).
After 7 days, the efficacy in % is determined. 100% means that all the caterpillars have been killed; 0% means that no caterpillars have been killed.

[9] = system: Boophilus microplus; assay: Boophilus microplus - injection test; type: in vivo; conditions: application rate 20 μg/animal; injected into engorged adult female cattle ticks; laying of fertile eggs after 7 days
Description: Boophilus microplus—Injection Test
• Solvent: dimethyl sulphoxide
To produce a suitable active compound preparation, 10 mg of active compound are mixed with 0.5 ml of solvent and the concentrate is diluted with solvent to the desired concentration. 1 μl of the active compound solution is injected into the abdomen of 5 engorged adult female cattle ticks (Boophilus microplus). The animals are transferred into dishes and kept in a climate-controlled room.
Efficacy is assessed after 7 days by laying of fertile eggs. Eggs which are not visibly fertile are stored in a climate-controlled cabinet until the larvae hatch after about 42 days. An efficacy of 100% means that none of the ticks has laid any fertile eggs; 0% means that all the eggs are fertile.

[10] = system: Meloidogyne incognita; assay: Meloidogyne incognita test; type: in vivo; conditions: application rate 20 ppm; egg/larvae suspension with lettuce seeds in sand; formation of galls after 14 days
Description: Meloidogyne incognita Test • Solvent: 125.0 parts by weight of acetone To produce a suitable preparation of active compound, 1 part by weight of active compound is mixed with the stated amount of solvent and the concentrate is diluted with water to the desired concentration. Vessels are filled with sand, active compound solution, an egg/larvae suspension of the southern root-knot nematode (Meloidogyne incognita) and lettuce seeds. The lettuce seeds germinate and the plants develop. The galls develop on the roots. After 14 days, the nematicidal efficacy in % is determined by the formation of galls. 100% means that no galls were found; 0% means that the number of galls on the treated plants corresponds to the untreated control.

[11] = system: Musca domestica; assay: Musca domestica test; type: in vivo; conditions: application rate 100 ppm; adult houseflies, sponge with sugar solution; after 2 days
Description: Musca domestica Test • Solvent: dimethyl sulphoxide To produce a suitable active compound preparation, 10 mg of active compound are mixed with 0.5 ml of dimethyl sulphoxide, and the concentrate is diluted with water to the desired concentration. Vessels containing a sponge treated with sugar solution and the active compound preparation of the desired concentration are populated with 10 adult houseflies (Musca domestica). After 2 days, the kill in % is determined. 100% means that all of the flies have been killed; 0% means that none of the flies have been killed.

[12] = system: Tetranychus urticae; assay: Tetranychus urticae - spray test, OP-resistant; type: in vivo; conditions: application rate 500 g/ha; all stages of greenhouse red spider mite on bean leaf discs; after 6 days
Description: Tetranychus urticae—Spray Test, OP-Resistant
as §2, §3
Discs of bean leaves (Phaseolus vulgaris) infested with all stages of the greenhouse red spider mite (Tetranychus urticae) are sprayed with an active compound preparation of the desired concentration.
After 6 days, the efficacy in % is determined. 100% means that all the spider mites have been killed; 0% means that no spider mites have been killed.

| SMILES | log P (neutral) [4] | chromatographic logP [4] | efficacy [1] [%] | efficacy [2] [%] | efficacy [3] [%] | efficacy (kill) [5] [%] | efficacy [6] [%] | efficacy (kill) [7] [%] | efficacy [8] [%] | efficacy [9] [%] | pest or weed control at 500 g/ha [3] [%] | nematicidal efficacy [10] [%] | efficacy (kill) [11] [%] | efficacy [12] [%] |
| --- | --- | --- | --- | --- | --- | --- | --- | --- | --- | --- | --- | --- | --- | --- |
| CCS(=O)(=O)c1ccc(-n2cncn2)nc1-c1nc2cc(C(F)(F)F)cnc2n1C [Example I-22] |  |  | 100 |  | 100 | 100 | 100 | 100 | 100 | 80 |  |  |  |  |
| CCS(=O)(=O)c1ccc(N)nc1-c1nc2cc(C(F)(F)F)cnc2n1C [Example I-6, 5-(Ethylsulphonyl)-6-[3-methyl-6-(trifluoromethyl)-3H-imidazo[4,5-b]pyridin-2-yl]pyridin-2-amine] |  | 2.02 |  |  |  |  | 90 |  |  |  | 100 | 90 |  |  |
| CCS(=O)(=O)c1ccc(NC(C)=O)nc1-c1nc2cc(C(F)(F)F)ccc2n1C [Example I-2, N-{5-(Ethylsulphonyl)-6-[1-methyl-5-(trifluoromethyl)-1H-benzimidazol-2-yl]pyridin-2-yl}acetamide] |  | 2.5 | 100 |  |  | 95 | 100 | 100 | 100 |  | 100 |  | 90 |  |

Continued, in another order:

| log P (neutral) [4] | chromatographic logP [4] | SMILES | efficacy [1] [%] | efficacy [2] [%] | efficacy [3] [%] | efficacy (kill) [5] [%] | efficacy [6] [%] | efficacy (kill) [7] [%] | efficacy [8] [%] | efficacy [9] [%] | pest or weed control at 500 g/ha [3] [%] | nematicidal efficacy [10] [%] | efficacy (kill) [11] [%] | efficacy [12] [%] |
| --- | --- | --- | --- | --- | --- | --- | --- | --- | --- | --- | --- | --- | --- | --- |
| 3.27 |  | CCS(=O)(=O)c1ccc(NC(=O)C(F)(F)F)nc1-c1nc2cc(C(F)(F)F)ccc2n1C [Example I-11] | 100 | 80 | 100 | 100 | 90 | 100 |  |  |  |  |  |  |
| 2.31 |  | CCS(=O)(=O)c1ccc(NC(=O)C(C)CS(C)(=O)=O)nc1-c1nc2cc(C(F)(F)F)cnc2n1C (stereo not shown) [Example I-21] |  |  | 100 |  | 90 |  |  |  |  | 90 |  |  |
| 2.00 |  | CCS(=O)(=O)c1ccc(NC(=O)C(F)(F)F)nc1-c1nc2cc(C(F)(F)F)cnc2n1C [Example I-15] |  |  | 100 |  | 100 |  | 83 |  |  | 90 |  |  |
|  | 2.1 | CCS(=O)(=O)c1ccc(N)nc1-c1nc2cc3c(cc2n1C)OC(F)(F)O3 [Example I-8, 6-(2,2-Difluoro-7-methyl-[1,3]dioxolo[4,5-f]benzimidazol-6-yl)-5-ethylsulphonylpyridin-2-amine] |  |  |  |  | 90 |  | 100 |  | 100 |  |  | 90 |
